The test system of one experiment is CCRF S-180. Nature of the experiment: In vivo antitumor activity against mouse S180 cells. It is filed as functional, organism-based.
The subject of the next experiment is L1210. Nature of the experiment: In vivo antitumor activity against mouse L1210 cells. It is filed as functional, organism-based.
Another experiment deals with CA-755. Briefly: In vivo antitumor activity against mouse CA-755 cells. Format: functional, organism-based.
The next experiment relates to KB. Briefly: Cytotoxicity against human KB cells. It is filed as functional. The conditions noted are these: read-out: ED50 (the source's name).

≈ marks a conversion by molar mass, not a printed value. Calls of active or inactive are those of the source. The rule behind the calls is not given here. Some results are limits rather than exact numbers.

As for `COc1ccc(C2CC(=O)c3c(cc(OC)c(OC)c3OC)O2)cc1` (stereo not given), the outcome in the experiment with CCRF S-180, with L1210 and in the experiment with CA-755 was inactive.
Turning to `O=c1cc(-c2ccc(O)cc2)oc2cc(O[C@@H]3O[C@H](CO)[C@@H](O)[C@H](O)[C@H]3O)cc(O)c12` [APIGETRIN], the outcome with CCRF S-180 was inactive. For the same compound, the EC50 with KB was > 100 µg/mL.
Consider `COc1ccc(C2CC(=O)c3ccccc3O2)cc1` (stereo not given), for which the result in the experiment with CCRF S-180, with L1210 and with CA-755 was inactive.
With `O=c1cc(-c2ccccc2)oc2c(F)cc(F)cc12`, the outcome in the experiment on CCRF S-180 and with L1210 was inactive. Also, the EC50 with KB turned out to be 15 µg/mL (≈ 58.1 µM).
On to `COc1ccc(C2CC(=O)c3c(cc(OC)c(O)c3OC)O2)cc1` (stereo not given), for which the outcome with CCRF S-180, in the experiment on L1210 and in the experiment with CA-755 was inactive.
Regarding `Cc1c(O)cc2c(c1O)C(=O)CC(c1ccc(O)cc1)O2` (stereo not given), the result in the experiment on L1210 was inactive. Moreover, the EC50 with KB came to 57 µg/mL (≈ 199 µM).
As to `COc1ccc2c(c1)C(=O)CC(c1ccccc1)O2` (stereo not given), the outcome in the experiment on CCRF S-180 was Active. In addition, the result with L1210 and with CA-755 was inactive.
Consider `COc1cc2oc(-c3ccc(O)cc3)cc(=O)c2c(OC)c1OC`, for which the result in the experiment with CCRF S-180, with L1210 and with CA-755 was inactive. The EC50 with KB was determined as 19 µg/mL (≈ 57.9 µM).
As for `COc1ccc(-c2cc(=O)c3c(OC)c(O)c(OC)cc3o2)cc1`, the result in the experiment on CCRF S-180, in the experiment on L1210 and in the experiment with CA-755 was inactive.
Take `COc1ccc(-c2oc3cc(OC(C)=O)cc(OC(C)=O)c3c(=O)c2OC)cc1`: the outcome in the experiment on CCRF S-180 and in the experiment with L1210 was inactive. The result in the experiment on CA-755 was Active.
Regarding `O=C1CC(c2ccccc2Cl)Oc2ccccc21` (stereo not given), the outcome with CCRF S-180, in the experiment with L1210 and in the experiment on CA-755 was inactive.
Consider `COc1ccc(C2CC(=O)c3cc(OC)ccc3O2)cc1` (stereo not given), for which the outcome in the experiment with CCRF S-180, in the experiment on L1210 and in the experiment on CA-755 was inactive.
Take `O/N=c1/cc(-c2ccccc2)oc2ccccc12`: the result with CCRF S-180 and in the experiment on L1210 was inactive.
For the compound `COc1cc(O)c2c(=O)c(O)c(-c3ccc(O)c(O)c3)oc2c1`, the result in the experiment with CCRF S-180, in the experiment with L1210 and in the experiment with CA-755 was inactive.
Turning to `COc1ccc(C2CC(=O)c3c(OC(C)=O)cc(OC(C)=O)cc3O2)cc1OC(C)=O` (stereo not given), the result in the experiment on CCRF S-180, with L1210 and in the experiment with CA-755 was inactive.
Regarding `O=c1c(-c2ccc(O)cc2)coc2cc(O)cc(O)c12` [GENISTEIN], the outcome in the experiment on CCRF S-180, in the experiment on L1210 and in the experiment on CA-755 was inactive. Moreover, the EC50 with KB was determined as 6.7 µg/mL (≈ 24.8 µM).
For `CC(=O)Oc1cc(O)c2c(=O)c(OC(C)=O)c(-c3ccc(OC(C)=O)c(OC(C)=O)c3)oc2c1`, the result with CCRF S-180, in the experiment on L1210 and in the experiment with CA-755 was inactive. Further, in the experiment with KB, the EC50 turned out to be 22 µg/mL (≈ 46.8 µM).
In the case of `COc1cc(C)cc2c1OC(c1ccccc1)CC2=O.Cl` (stereo not given), the result with CCRF S-180, in the experiment with L1210 and in the experiment with CA-755 was inactive. For the same compound, the EC50 in the experiment on KB stood at 26 µg/mL.
For the compound `O=C1c2ccccc2OC(c2ccccc2)C1Cl` (stereo not given), the result with CCRF S-180 and in the experiment with CA-755 was inactive.
Turning to `COc1cc(OC)c(-c2cc(=O)c3ccccc3o2)cc1Br`, the result in the experiment with CCRF S-180 and in the experiment on CA-755 was inactive.
Take `COc1cc2c(c(OC)c1OC)C(=O)CC(c1ccc(O)cc1)O2` (stereo not given): the outcome with CCRF S-180, in the experiment on L1210 and with CA-755 was inactive.
In the case of `COc1cc(C2CC(=O)c3ccccc3O2)ccc1O` (stereo not given), the result with CCRF S-180 and with L1210 was inactive.
Take `COc1ccc(C2CC(=O)c3ccccc3O2)cc1OC` (stereo not given): the outcome with CCRF S-180, with L1210 and with CA-755 was inactive.
As for `COC1(O)C(=O)c2ccccc2OC1(OC)c1ccccc1` (stereo not given), in the experiment with L1210, the result was inactive. For the same compound, in the experiment on KB, the EC50 worked out at 34 µg/mL (≈ 113 µM).
For the compound `COc1ccc([C@@H]2CC(=O)c3c(O)cc(O)cc3O2)cc1O`, the outcome with CCRF S-180, in the experiment on L1210 and in the experiment on CA-755 was inactive.
`O=C1CC(c2cccc(Cl)c2)Oc2ccccc21` (stereo not given): the outcome in the experiment with CCRF S-180 and with L1210 was inactive. Moreover, the result in the experiment with CA-755 was Active.
Turning to `O=C1CC(c2ccccc2Cl)Oc2ccc(Cl)cc21` (stereo not given), the result in the experiment on CCRF S-180, in the experiment on L1210 and in the experiment on CA-755 was inactive.
For `O=c1cc(-c2ccc(O)cc2)oc2ccccc12`, the outcome in the experiment on CCRF S-180, with L1210 and in the experiment on CA-755 was inactive.
For the compound `C[C@@H]1O[C@@H](OC[C@H]2O[C@@H](Oc3cc(O)c4c(c3)OC(c3ccc(O)cc3)CC4=O)[C@H](O)[C@@H](O)[C@@H]2O)[C@H](O)[C@H](O)[C@H]1O` (stereo not given in full), the result in the experiment on CCRF S-180 was inactive.
In the case of `COc1cc(O)c(C2CC(=O)c3c(O)cc(O[C@@H]4O[C@H](CO[C@@H]5O[C@@H](C)[C@H](O)[C@@H](O)[C@H]5O)[C@@H](O)[C@H](O)[C@H]4O)cc3O2)cc1O` (stereo not given in full), the result with L1210 was inactive. Moreover, the EC50 with KB is > 100 µg/mL.
For `COc1ccc([C@@H]2CC(=O)c3c(O)cc(O[C@@H]4O[C@H](CO[C@@H]5O[C@@H](C)[C@H](O)[C@@H](O)[C@H]5O)[C@@H](O)[C@H](O)[C@H]4O)cc3O2)cc1O`, the outcome in the experiment on CCRF S-180, in the experiment on L1210 and in the experiment on CA-755 was inactive.
`O=C1CC(c2ccc(Cl)cc2)Oc2ccccc21` (stereo not given): the result in the experiment with CCRF S-180, with L1210 and with CA-755 was inactive.
`CS(=O)(=O)NC1C(=O)c2ccccc2OC1c1ccccc1` (stereo not given): the outcome in the experiment with CCRF S-180 and in the experiment on L1210 was inactive. Further, the EC50 in the experiment with KB is 10 µg/mL (≈ 31.5 µM).
Turning to `O=c1c(O)c(-c2ccc(Cl)cc2)oc2cc(O)ccc12`, the outcome in the experiment with CCRF S-180 and in the experiment on L1210 was inactive.
As for `Cc1cc(C)c(-c2oc3ccc(Cl)cc3c(=O)c2Cl)c(C)c1`, in the experiment with CCRF S-180, the result was Active. The EC50 in the experiment on KB is > 100 µg/mL.
As to `O=C1c2cc(Cl)ccc2OC(Cl)(c2ccc(Cl)cc2)C1Cl` (stereo not given), the result in the experiment on CCRF S-180 was inactive.
Turning to `O=c1cc(-c2ccccc2)oc2ccccc12`, the result with CCRF S-180, with L1210 and in the experiment on CA-755 was inactive.
With `O=c1cc(-c2cccc(O)c2)oc2ccccc12`, in the experiment on L1210, the outcome was inactive. Also, the EC50 in the experiment on KB was 8.5 µg/mL (≈ 35.7 µM).
For `COc1ccc(C2Oc3ccccc3C(=O)C2N)cc1.Cl` (stereo not given), in the experiment on CCRF S-180, the outcome was inactive. For the same compound, the EC50 in the experiment on KB is > 100 µg/mL.
`O=C1c2ccccc2OC(Cl)(c2ccccc2)C1Cl` (stereo not given): the result in the experiment with CCRF S-180, with L1210 and in the experiment with CA-755 was inactive.
On to `COc1cc2c(c(O[C@@H]3O[C@H](CO)[C@@H](O)[C@H](O)[C@H]3O)c1)C(=O)CC(c1ccc(O)cc1)O2` (stereo not given in full), for which the outcome with CCRF S-180 was inactive. The EC50 in the experiment with KB is > 100 µg/mL.
With `O=C1C[C@@H](c2ccc(O)cc2)Oc2cc(O)cc(O)c21`, the result in the experiment on CCRF S-180 and with L1210 was inactive.
In the case of `O=C1C[C@@H](c2ccccc2)Oc2cc(O)cc(O)c21`, the outcome in the experiment with CCRF S-180, in the experiment with L1210 and in the experiment on CA-755 was inactive.
As to `O=C1CC(c2ccc(Cl)cc2Cl)Oc2ccc(Cl)cc21` (stereo not given), the result with CCRF S-180, in the experiment on L1210 and with CA-755 was inactive.
As to `COc1cc2c(c(OC)c1O)C(=O)CC(c1ccc(O)cc1)O2` (stereo not given), the result in the experiment on CCRF S-180, with L1210 and in the experiment on CA-755 was inactive.
For `COc1ccc(-c2cc(=O)c3cc(OC)c(OC)cc3o2)cc1O`, the EC50 in the experiment on KB amounted to 2 µg/mL (≈ 6.09 µM).
For `COc1ccc(-c2oc3cc(O)cc(O)c3c(=O)c2OC)cc1`, the result with CCRF S-180 and in the experiment on L1210 was inactive. In addition, in the experiment on CA-755, the result was Active.
Regarding `CCOc1ccc(-c2cc(=O)c3c(OC)c(OC)c(OC)c(OC)c3o2)cc1`, the outcome in the experiment with CCRF S-180 and in the experiment with L1210 was inactive. Besides, in the experiment with KB, the EC50 was 30 µg/mL (≈ 77.6 µM).
With `CS(=O)(=O)Oc1cccc(-c2cc(=O)c3ccccc3o2)c1`, the EC50 in the experiment with KB is > 100 µg/mL.
`Cc1c(-c2ccccc2)oc2c(C(=O)OCCN3CCCCC3)cccc2c1=O.Cl` [FLAVOXATE HYDROCHLORIDE]: the result in the experiment on L1210 was inactive. Moreover, in the experiment with KB, the EC50 was > 100 µg/mL.
For `O=C1CC(c2ccc(Cl)cc2)Oc2ccc(Cl)cc21` (stereo not given), the result in the experiment on CCRF S-180, with L1210 and in the experiment with CA-755 was inactive.
Take `C=CCOc1ccc(-c2cc(=O)c3c(OC)c(OC)c(OC)c(OC)c3o2)cc1`: in the experiment with KB, the EC50 is 26 µg/mL (≈ 65.3 µM).
Consider `COc1c(-c2ccc(O)c(O)c2)oc2cc(O)cc(O)c2c1=O` [3-O-METHYLQUERCETIN], for which, in the experiment on KB, the EC50 stood at 17 µg/mL (≈ 53.8 µM).
As to `CS(=O)(=O)Nc1c(-c2ccccc2)oc2ccccc2c1=O`, in the experiment on CCRF S-180, the result was inactive. For the same compound, the EC50 with KB stood at 10 µg/mL (≈ 31.7 µM).
Turning to `COc1ccc2c(=O)c(C)c(-c3ccccc3)oc2c1CN(C)C.Cl` [DIMEFLINE HYDROCHLORIDE], in the experiment with L1210, the result was inactive. For the same compound, in the experiment with KB, the EC50 came out at 22 µg/mL.
